Source: publication PMC4859520, “Binding Properties of General Odorant Binding Proteins from the Oriental Fruit Moth, Grapholita molesta (Busck) (Lepidoptera: Tortricidae)” (PLoS ONE, 2016)
“Also recorded” adds a separate entry of the source. Like-named read-outs stand apart in the source and are kept apart here.

Columns and labels:
GmolGOBP1 = GmolGOBP1 (Grapholita molesta, UniProt H9XTU5); experiment: Fluorescence competitive binding assay with probe 1-NPN, rGmolGOBP1; details: for binding to rGmolGOBP1 (in words): competitive binding with 1-NPN
Protocol: (§1) Fluorescence binding assays were performed on a Hitachi (Tokyo, Japan) F-4500 fluorescence spectrophotometer with a 1 cm light path fluorimeter quartz cuvette. Both of the slit widths for excitation and emission were 10 nm. 1-N-phenyl-naphthylamine (1-NPN) was dissolved in HPLC purity grade methanol to yield a 1 mM stock solution. […] The probes were excited at 337 nm and emission spectra were recorded between 370 and 550 nm. […] Binding data were collected in three independent measurements.
(§2) Dissociation constants of the complex GmolGOBPs/1-NPN (K1-NPN) were calculated by a nonlinear regression binding curve, using Prism 5.0 (GraphPad Software Inc.).

GmolGOBP2 = GmolGOBP2 (Grapholita molesta, UniProt H9XTU6); experiment: Fluorescence competitive binding assay with probe 1-NPN, rGmolGOBP2 wild-type
Protocol: as §1, §2

rGmolOBP8 = molecular target: rGmolOBP8; design: method as in PMID 26609640; details: cited from earlier work
rGmolOBP11 = molecular target: rGmolOBP11; design: method as in PMID 26609640; details: cited from earlier work
GmolGOBP2 V111A = GmolGOBP2 V111A (Grapholita molesta, UniProt H9XTU6, V131A); experiment: Fluorescence competitive binding assay, GmolGOBP2 mutant V111A; details: for affinity of V111A mutant versus wild-type (in words): V111A versus wild-type rGmolGOBP2
Protocol: (§3) Fluorescence binding assays were performed on a Hitachi (Tokyo, Japan) F-4500 fluorescence spectrophotometer with a 1 cm light path fluorimeter quartz cuvette. Both of the slit widths for excitation and emission were 10 nm. 1-N-phenyl-naphthylamine (1-NPN) was dissolved in HPLC purity grade methanol to yield a 1 mM stock solution. A 2 μM solution of the protein in 20 mM Tris-HCl, pH 7.4, was titrated with aliquots of 1 mM 1-NPN to final concentrations of 1, 2, 4, 6, 8, 10, 12, 14, 16, 18, and 22 μM. The probes were excited at 337 nm and emission spectra were recorded between 370 and 550 nm. All ligands (S1 File) used in competitive binding assays were also dissolved in HPLC purity grade methanol. The final concentrations of sex pheromones were between 1 and 22 μM for each rGmolGOBP protein, whereas the concentrations of 30 synthetic plant volatiles to rGmolGOBP1 and 2 were up to 64 and 100 μM, respectively. Binding data were collected in three independent measurements.
(§4) Dissociation constants of the complex GmolGOBPs/1-NPN (K1-NPN) were calculated by a nonlinear regression binding curve, using Prism 5.0 (GraphPad Software Inc.). The inhibition constants (Ki) of the competitors were computed from the corresponding IC50 values using the equation: Ki = [IC50]/(1+[1−NPN]/K1−NPN), where [1−NPN] is the free concentration of 1−NPN and K1-NPN is the dissociation constant of the complex protein/1-NPN.
(§5) Gene-specific primers were designed in accordance with the recommended protocols of the TaKaRa MutanBEST Kit (TaKaRa, Shiga, Japan). The GmolGOBP2 coding sequence was mutated to create the three mutants GmolGOBP2 T9A (threonine to alanine at position 9), GmolGOBP2 V111A (valine to alanine at position 111), and GmolGOBP2 V114A (valine to alanine at position 114). Mutations were obtained using the TaKaRa MutanBEST Kit with Pyrobest DNA polymerase with the pMD19-T/GmolGOBP2 plasmid DNA as template. All plasmids containing mutations were verified by DNA sequencing. Mutated protein expression and enrichment were performed as described above for rGmolGOBP1 and 2. After determining concentrations, purified mutants were applied to verify the binding affinities with dodecanol and its analogs in fluorescence ligand-binding assays.

GmolGOBP2 V114A = GmolGOBP2 V114A (Grapholita molesta, UniProt H9XTU6, V134A); experiment: Fluorescence competitive binding assay, GmolGOBP2 mutant V114A; details: for affinity of V114A mutant versus wild-type (in words): V114A versus wild-type rGmolGOBP2
Protocol: as §3, §4, §5

GmolGOBP2 T9A = GmolGOBP2 T9A (Grapholita molesta, UniProt H9XTU6, T29A); experiment: Fluorescence competitive binding assay, GmolGOBP2 mutant T9A
Protocol: as §3, §4, §5

rGmolPBP1 = molecular target: rGmolPBP1; design: method as in earlier work; details: cited from earlier work
rGmolGOBP2 = rGmolGOBP2 (Grapholita molesta, UniProt H9XTU6); experiment: Effect of pH on binding affinity of rGmolGOBP2
Protocol: Based on the fluorescence measurement experiments as described above, we further evaluated the effects of pH on the binding affinities of GmolGOBP2 to ligands; the binding of GmolGOBP2 to the representative ligand dodecanol was detected at six different pH values (4.0, 5.0, 6.8, 7.4, 8.0 and 8.8) in 20 mM Tris-HCl buffer. All the values of binding affinities were collected in three independent measurements. Data are reported as means±SEM. Difference in pH effect on binding affinity of rGmolGOBP2 was analyzed with one-way analysis of variance (ANOVA), followed by the Student-Newman-Keuls (S-N-K) test at α = 0.05. P<0.05 was considered statistically significant. For statistical analysis we used SPSS 16.0 software (SPSS Inc., Chicago, IL).

rGmolOBP15 = molecular target: rGmolOBP15; design: method as in PMID 26609640; details: cited from earlier work
[1] = protein and 1-NPN 2 μM, pH 7.4, calculated from IC50, read-out: GmolGOBP1 Ki
[2] = protein and 1-NPN 2 μM, pH 7.4, displacing half of initial fluorescence, read-out: GmolGOBP1 IC50
[3] = protein and 1-NPN 2 μM, pH 7.4, calculated from IC50, read-out: GmolGOBP2 Ki
[4] = protein and 1-NPN 2 μM, pH 7.4, displacing half of initial fluorescence, read-out: GmolGOBP2 IC50
[5] = T9A versus wild-type rGmolGOBP2

GmolGOBP2 V114A, sequence (H9XTU6 entry or part of it V134A): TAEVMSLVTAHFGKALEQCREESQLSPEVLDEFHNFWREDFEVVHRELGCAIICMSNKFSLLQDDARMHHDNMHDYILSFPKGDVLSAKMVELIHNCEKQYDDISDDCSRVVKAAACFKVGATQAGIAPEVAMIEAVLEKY
GmolGOBP2, sequence (H9XTU6 entry or part of it): as the sequence (H9XTU6 entry or part of it V134A) above, with A114V counted along it
rGmolGOBP2, sequence (H9XTU6 entry or part of it): as the sequence (H9XTU6 entry or part of it V134A) above, with A114V counted along it
GmolGOBP2 T9A, sequence (H9XTU6 entry or part of it T29A): as the sequence (H9XTU6 entry or part of it V134A) above, with T9A, A114V counted along it
GmolGOBP2 V111A, sequence (H9XTU6 entry or part of it V131A): as the sequence (H9XTU6 entry or part of it V134A) above, with V111A, A114V counted along it
GmolGOBP1, sequence (H9XTU5 entry or part of it): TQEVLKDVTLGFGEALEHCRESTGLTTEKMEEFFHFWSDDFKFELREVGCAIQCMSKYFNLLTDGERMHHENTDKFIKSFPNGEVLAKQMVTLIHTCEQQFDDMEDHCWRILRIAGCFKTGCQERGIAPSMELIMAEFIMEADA

Structure (SMILES): O=Cc1ccccc1 [Benzaldehyde]
- IC50 (GmolGOBP1): 35 ± 3.28 µM
- Ki (GmolGOBP1): 32.2 µM
- IC50 (GmolGOBP2): 91.3 ± 2.87 µM
- Ki (GmolGOBP2): 75.4 µM

Structure (SMILES): CCC/C=C\CCCCCCCO [Z8-12:OH, (Z)-8-dodecenyl alcohol]
- Ki (GmolGOBP1; [1]): 3.14 µM
- IC50 (GmolGOBP1; [2]): 3.85 ± 0.41 µM
- Ki (rGmolOBP8): 5.59 µM
- Ki (GmolGOBP2; [3]): 12.8 µM
- IC50 (GmolGOBP2; [4]): 15.5 ± 0.52 µM
- Ki (rGmolOBP11): 3.05 µM

Structure (SMILES): CCCCCCCCCCO [decanol]
- Ki (GmolGOBP2 V111A): 11.3 ± 0.17 µM
- affinity of V111A mutant versus wild-type (in words) (GmolGOBP2 V111A): no differences
- Ki (GmolGOBP2 V114A): 15.6 ± 0.43 µM
- affinity of V114A mutant versus wild-type (in words) (GmolGOBP2 V114A): no differences
- Ki (GmolGOBP2): 15.3 ± 1 µM
- Ki (GmolGOBP2 T9A): 39.6 ± 2.34 µM
- decrease in affinity of T9A mutant (GmolGOBP2 T9A; [5]): 3-5 fold

Structure (SMILES): CCC/C=C/CCCCCCCOC(C)=O [E8-12:AC, (E)-8-dodecenyl acetate]
- Ki (GmolGOBP1; [1]): 8.85 µM
- IC50 (GmolGOBP1; [2]): 10.5 ± 0.87 µM
- Ki (rGmolPBP1): 1.09 µM

Structure (SMILES): CCCCCCOC(C)=O [Hexyl acetate]
- Ki (GmolGOBP1; [1]): 27.5 µM
- IC50 (GmolGOBP1; [2]): 29.9 ± 4.11 µM
- Ki (GmolGOBP2; [3]): 81.6 µM
- IC50 (GmolGOBP2; [4]): 98.8 ± 3.63 µM

Structure (SMILES): CCCCCCCCCCCCO [12:OH, dodecanol]
- binding to rGmolGOBP1 (in words) (GmolGOBP1): did not bind
- Ki (GmolGOBP2 V111A): 1.35 ± 0.22 µM
- affinity of V111A mutant versus wild-type (in words) (GmolGOBP2 V111A): slightly lower affinities
- Ki (GmolGOBP2 V114A): 1.78 ± 0.13 µM
- affinity of V114A mutant versus wild-type (in words) (GmolGOBP2 V114A): slightly lower affinities
- binding affinity of rGmolGOBP2 at pH 4.0 (in words) (rGmolGOBP2; pH 4.0, 20 mM Tris-HCl): weak ability
- binding affinity of rGmolGOBP2 at pH 7.4 (in words) (rGmolGOBP2; pH 7.4, 20 mM Tris-HCl, six pH values 4.0 to 8.8 compared): maximum value; also recorded: pronounced binding affinity
- Ki (GmolGOBP2; [3]): 1.22 µM
- IC50 (GmolGOBP2; [4]): 1.78 ± 0.23 µM
- Ki (GmolGOBP2 T9A): 6.04 ± 0.17 µM
- decrease in affinity of T9A mutant (GmolGOBP2 T9A; [5]): 3-5 fold
- Ki (rGmolOBP15): 3.24 µM

Structure (SMILES): CCCCOC(=O)CCC [Butyl butyrate]
- Ki (GmolGOBP1; [1]): 33.1 µM
- IC50 (GmolGOBP1; [2]): 36 ± 2.5 µM

Structure (SMILES): CCCCCCCCCCCCCC [Tetradecane]
- Ki (GmolGOBP1; [1]): 8.47 µM
- IC50 (GmolGOBP1; [2]): 9.21 ± 1.31 µM

Structure (SMILES): CCCCCCCCCCCCCCC [Pentadecane]
- Ki (GmolGOBP1; [1]): 11.4 µM
- IC50 (GmolGOBP1; [2]): 12.4 ± 1.87 µM

Structure (SMILES): CCCCCCO [1-Hexanol]
- Ki (GmolGOBP1; [1]): 19.7 µM
- IC50 (GmolGOBP1; [2]): 21.4 ± 1.8 µM

Structure (SMILES): CCCCCCC(=O)OCC [Ethyl heptanoate]
- Ki (GmolGOBP1; [1]): 34.4 µM
- IC50 (GmolGOBP1; [2]): 37.4 ± 2.35 µM
- Ki (GmolGOBP2; [3]): 73.2 µM
- IC50 (GmolGOBP2; [4]): 88.7 ± 3.01 µM

Structure (SMILES): CCCCCCCCCCCCCCO [tetradecanol]
- affinity of V111A mutant versus wild-type (in words) (GmolGOBP2 V111A): no differences
- Ki (GmolGOBP2 V111A; mutant V111A, protein and 1-NPN 2 μM, ligand 0 to 14 μM, read-out: Ki V111A): 0.3 ± 0.16 µM
- affinity of V114A mutant versus wild-type (in words) (GmolGOBP2 V114A): no differences
- Ki (GmolGOBP2 V114A; mutant V114A, protein and 1-NPN 2 μM, ligand 0 to 14 μM, read-out: Ki V114A): 0.37 ± 0.14 µM
- Ki (GmolGOBP2): 0.36 ± 0.05 µM
- affinity of T9A mutant versus wild-type (in words) (GmolGOBP2 T9A; [5]): drastical decline in affinity
- Ki (GmolGOBP2 T9A; mutant T9A, protein and 1-NPN 2 μM, ligand 0 to 14 μM, read-out: Ki T9A): 5.75 ± 0.86 µM

Structure (SMILES): CCCCCCCCC=O [Nonanal]
- Ki (GmolGOBP1; [1]): 54.4 µM
- IC50 (GmolGOBP1; [2]): 59.2 ± 8.7 µM
- Ki (GmolGOBP2; [3]): 75.3 µM
- IC50 (GmolGOBP2; [4]): 91.2 ± 5.49 µM

Structure (SMILES): CCCCCC=O [Hexanal]
- IC50 (GmolGOBP1): 33.6 ± 2 µM
- Ki (GmolGOBP1): 30.9 µM

Structure (SMILES): N#Cc1ccccc1 [Benzonitrile]
- IC50 (GmolGOBP1): 40.4 ± 1.95 µM
- Ki (GmolGOBP1): 37.1 µM

Structure (SMILES): CCC/C=C\CCCCCCCOC(C)=O [Z8-12:AC, (Z)-8-dodecenyl acetate]
- binding to rGmolGOBP1 (in words) (GmolGOBP1): did not bind
- Ki (rGmolPBP1): 1.1 µM
- Ki (GmolGOBP2; [3]): 14.4 µM
- IC50 (GmolGOBP2; [4]): 17.4 ± 0.87 µM

Structure (SMILES): CCCCCCCCCC [Decane]
- Ki (GmolGOBP1; [1]): 5.19 µM
- IC50 (GmolGOBP1; [2]): 5.64 ± 0.69 µM

Structure (SMILES): COC(=O)c1ccccc1O [Methyl salicylate]
- IC50 (GmolGOBP1): 49.8 ± 6.48 µM
- Ki (GmolGOBP1): 45.8 µM
- IC50 (GmolGOBP2): 93.7 ± 5.55 µM
- Ki (GmolGOBP2): 77.3 µM

Structure (SMILES): CCCCCCCC=O [Octanal]
- Ki (GmolGOBP1; [1]): 21.5 µM
- IC50 (GmolGOBP1; [2]): 23.3 ± 1.43 µM
- Ki (GmolGOBP2; [3]): 66.4 µM
- IC50 (GmolGOBP2; [4]): 80.4 ± 3.79 µM
